Laboratory results from patent publication US20240336564A1, “COMPOUND, RUBBER MIXTURE CONTAINING THE COMPOUND, VEHICLE TIRE WHICH HAS AT LEAST ONE COMPONENT COMPRISING THE RUBBER MIXTURE, PROCESS FOR PREPARING THE COMPOUND, AND USE OF THE COMPOUND AS AN AGING PROTECTION AGENT AND/OR ANTIOZONANT AND/OR COLORANT” (CONTINENTAL REIFEN DEUTSCHLAND GMBH, priority 2021, published 2024).

Experiment: Measurement of oxidation induction time (OIT) by DSC
Conditions: with liquid polyisoprene LIR-50, isothermal 180° C., O2 atmosphere 50 mL/min, DSC peak; measurement accuracy ±10 min
Experimental: The compound of formula III) was investigated under laboratory conditions for their potential protective effect as aging stabilizers by measurement of the oxidation induction time.
To this end the compounds of formula III) and 6-PPD in each case together with a polymer (liquid synthetic polyisoprene (IR), LIR-50, Kuraray, weight average molecular weight distribution MW=54 000 g/mol, glass transition temperature Tg=−63° C.) were heated at constant temperature (180° C.) until onset of oxidation (start temperature 35° C., heating to 170° C. at a heating rate of 20 K/min (kelvin per minute), heating to 180° C. at a heating rate of 1 K/min; purge gas: nitrogen (N2), volume flow 50 mL/min). The specimen was isothermally maintained for 5 minutes at 180° C. under an N2 atmosphere and the atmosphere was then switched to an O2 atmosphere (volume flow 50 mL/min).
Oxidation was determined via a peak using DSC (differential scanning calorimetry).
The time in minutes to oxidation was measured.

Row | Structure (SMILES) | Oxidation induction time (time to oxidation)
1 | CC(C)CC(C)Nc1ccc(-c2cc3ccccc3[nH]2)cc1 (centres unmarked) | 121 ± 10 min
2 | CC(C)CC(C)Nc1ccc(Nc2ccccc2)cc1 (centres unmarked) [Compound 6-PPD, N-(1,3-dimethylbutyl)-N′-phenyl-p-phenylenediamine] | 116 ± 10 min
